Values belong to the molecule of their own block, whether it stands above or below them. Activity calls are given as the source filed them. The calls are words filed in the database; no cut-off is given here.
Key:
PC-3 [1] = assay: Antiproliferative activity against human PC3 cells assessed as cell viability after 48 hrs by MTT assay; format: functional, cell-based; conditions: PC-3, 48 h
[2] = Antiproliferative activity against human MIAPaCa2 cells assessed as cell viability after 48 hrs by MTT assay; format: functional, cell-based; conditions: MIA PaCa-2, 48 h
HepG2 = assay: Antiproliferative activity against human HepG2 cells assessed as cell viability after 48 hrs by MTT assay; format: functional, cell-based; conditions: HepG2, 48 h
PC-3 [3] = assay: Antiangiogenic activity in human PC3 cells assessed as VEGF-induced migration at 5 to 30 uM after 24 hrs by wound healing assay; format: functional, cell-based
PC-3 [4] = assay: Induction of apoptosis in human PC3 cells assessed as translocation of Bax from cytosol to mitochondria at 5 to 20 uM after 24 hrs by western blot analysis; format: functional, cell-based
PC-3 [5] = assay: Cell cycle arrest in human PC3 cells assessed as accumulation at sub G1 phase at 10 uM after 24 hrs by propidium iodide based flow cytometry (reference value: 3%); format: functional
PC-3 [6] = assay: Induction of apoptosis in human PC3 cells assessed as decrease in Bcl2 to Bax ratio at 5 to 20 uM after 24 hrs by western blot analysis (reference value: 5); format: functional
PC-3 [7] = assay: Cell cycle arrest in human PC3 cells assessed as accumulation at G2 phase at 20 uM after 24 hrs by propidium iodide based flow cytometry (reference value: 20%); format: functional
PC-3 [8] = assay: Cell cycle arrest in human PC3 cells assessed as accumulation at G2 phase at 10 uM after 24 hrs by propidium iodide based flow cytometry (reference value: 20%); format: functional
PC-3 [9] = assay: Cell cycle arrest in human PC3 cells assessed as accumulation at G1 phase at 5 uM after 24 hrs by propidium iodide based flow cytometry (reference value: 50%); format: functional
PC-3 [10] = assay: Cell cycle arrest in human PC3 cells assessed as accumulation at S phase at 20 uM after 24 hrs by propidium iodide based flow cytometry (reference value: 30%); format: functional
PC-3 [11] = assay: Cell cycle arrest in human PC3 cells assessed as accumulation at S phase at 10 uM after 24 hrs by propidium iodide based flow cytometry (reference value: 30%); format: functional
[12] = Up regulation of PARP-1 expression in human PC3 cells at 5 to 20 uM after 24 hrs by western blot analysis; format: functional, cell-based; conditions: PC-3
PC-3 [13] = assay: Cell cycle arrest in human PC3 cells assessed as accumulation at sub G1 phase after 24 hrs by propidium iodide based flow cytometry; format: functional
PC-3 [14] = assay: Induction of apoptosis in human PC3 cells assessed as apoptotic bodies after 24 hrs by fluorescence microscopic analysis; format: functional, cell-based
MIA PaCa-2 = assay: Antiproliferative activity against human MIAPaCa2 cells assessed as cell viability by MTT assay; format: functional, cell-based; conditions: TDE = time-dependent effect
PC-3 [15] = assay: Antiproliferative activity against human PC3 cells assessed as cell viability after 12 hrs by MTT assay; format: functional, cell-based; conditions: PC-3, 12 h
PC-3 [16] = assay: Down regulation of Bcl-2 in human PC3 cells at 10 to 20 uM after 24 hrs by western blot analysis; format: functional, cell-based
PC-3 [17] = assay: Antiproliferative activity against human PC3 cells assessed as cell viability after 6 hrs by MTT assay; format: functional, cell-based; conditions: PC-3, 6 h
PC-3 [18] = assay: Cell cycle arrest in human PC3 cells assessed as accumulation at S phase at 5 uM after 24 hrs by propidium iodide based flow cytometry (reference value: 30%); format: functional
PC-3 [19] = assay: Cell cycle arrest in human PC3 cells assessed as accumulation at G2 phase at 5 uM after 24 hrs by propidium iodide based flow cytometry (reference value: 20%); format: functional
PC-3 [20] = assay: Antiproliferative activity against human PC3 cells assessed as cell viability after 18 hrs by MTT assay; format: functional, cell-based; conditions: PC-3, 18 h
PC-3 [21] = assay: Disruption of mitochondrial membrane potential in human PC3 cells at 10 uM after 24 hrs by rhodamine-123 based fluorescence assay (reference value: 5%); format: functional
HUVEC [22] = assay: Antiangiogenic activity in HUVEC assessed as wound closure level at 20 uM after 24 hrs by wound healing assay (reference value: 100%); format: functional, Homo sapiens
PC-3 [23] = assay: Cell cycle arrest in human PC3 cells assessed as accumulation at G1 phase at 20 uM after 24 hrs by propidium iodide based flow cytometry (reference value: 50%); format: functional
PC-3 [24] = assay: Induction of apoptosis in human PC3 cells assessed as nuclear condensation after 24 hrs by fluorescence microscopic analysis; format: functional, cell-based
PC-3 [25] = assay: Down regulation of procaspase-8 expression in human PC3 cells at 5 to 20 uM after 24 hrs by western blot analysis; format: functional, cell-based
PC-3 [26] = assay: Cell cycle arrest in human PC3 cells assessed as accumulation at S phase after 24 hrs by propidium iodide based flow cytometry; format: functional
PC-3 [27] = assay: Cell cycle arrest in human PC3 cells assessed as accumulation at G1 phase at 10 uM after 24 hrs by propidium iodide based flow cytometry (reference value: 50%); format: functional
HUVEC [28] = assay: Antiangiogenic activity in HUVEC assessed as VEGF-induced migration after 24 hrs by wound healing assay; format: functional, cell-based; conditions: Homo sapiens
PC-3 [29] = assay: Antiproliferative activity against human PC3 cells assessed as cell viability after 24 hrs by MTT assay; format: functional, cell-based; conditions: PC-3, 24 h
PC-3 [30] = assay: Disruption of mitochondrial membrane potential in human PC3 cells at 20 uM after 24 hrs by rhodamine-123 based fluorescence assay (reference value: 5%); format: functional
PC-3 [31] = assay: Disruption of mitochondrial membrane potential in human PC3 cells at 5 uM after 24 hrs by rhodamine-123 based fluorescence assay (reference value: 5%); format: functional
PC-3 [32] = assay: Cell cycle arrest in human PC3 cells assessed as accumulation at sub G1 phase at 5 uM after 24 hrs by propidium iodide based flow cytometry (reference value: 3%); format: functional
PC-3 [33] = assay: Cell cycle arrest in human PC3 cells assessed as accumulation at sub G1 phase at 20 uM after 24 hrs by propidium iodide based flow cytometry (reference value: 3%); format: functional
PC-3 [34] = assay: Induction of apoptosis in human PC3 cells assessed as membrane blebbing after 24 hrs by fluorescence microscopic analysis; format: functional, cell-based

IC50 (PC-3 [1]): > 20 µM
IC50 (HepG2): > 20 µM
Structure (SMILES): CC1(C)[C@@H](OCc2ccc3c(c2)OCO3)CC[C@]2(C)[C@H]3C(=O)C=C4[C@@H]5C[C@@](C)(C(=O)O)CC[C@]5(C)CC[C@@]4(C)[C@]3(C)CC[C@@H]12
IC50 [2]: > 20 µM

IC50 (PC-3 [1]): > 20 µM
IC50 (HepG2): > 20 µM
Structure (SMILES): CC(C)=CCC/C(C)=C\CO[C@H]1CC[C@]2(C)[C@H]3C(=O)C=C4[C@@H]5C[C@@](C)(C(=O)O)CC[C@]5(C)CC[C@@]4(C)[C@]3(C)CC[C@H]2C1(C)C
IC50 [2]: > 20 µM

IC50 (PC-3 [1]): 0.012 µM
IC50 (HepG2): > 100 µM
Structure (SMILES): CC(=O)O[C@H]1C(=O)[C@@]2(C)[C@H]([C@H](OC(=O)c3ccccc3)[C@]3(O)C[C@H](OC(=O)[C@H](O)[C@@H](NC(=O)c4ccccc4)c4ccccc4)C(C)=C1C3(C)C)[C@]1(OC(C)=O)CO[C@@H]1C[C@@H]2O [PACLITAXEL]
IC50 [2]: 0.1 µM

IC50 (PC-3 [1]): > 20 µM
IC50 (HepG2): > 20 µM
Structure (SMILES): CC1(C)[C@@H](OCc2cccc(Cl)c2)CC[C@]2(C)[C@H]3C(=O)C=C4[C@@H]5C[C@@](C)(C(=O)O)CC[C@]5(C)CC[C@@]4(C)[C@]3(C)CC[C@@H]12
IC50 [2]: > 20 µM

IC50 (PC-3 [1]): 6 µM
IC50 (PC-3 [15]): 370 µM
IC50 (PC-3 [17]): 400 µM
IC50 (PC-3 [20]): 100 µM
IC50 (PC-3 [29]): 15 µM
IC50 (HepG2): 19 µM
Structure (SMILES): CC1(C)[C@@H](OCc2c(Cl)cccc2Cl)CC[C@]2(C)[C@H]3C(=O)C=C4[C@@H]5C[C@@](C)(C(=O)O)CC[C@]5(C)CC[C@@]4(C)[C@]3(C)CC[C@@H]12
Activity (PC-3 [3]): Dose-dependent effect
Activity (PC-3 [4]): Active
Activity (PC-3 [5]): 12%
Ratio (PC-3 [6]): 0.5
Activity (PC-3 [7]): 4%
Activity (PC-3 [8]): 7%
Activity (PC-3 [9]): 59%
Activity (PC-3 [10]): 53%
Activity (PC-3 [11]): 42%
Activity [12]: Active
Activity (PC-3 [13]): Dose-dependent effect
Activity (PC-3 [14]): Dose-dependent effect
Activity (MIA PaCa-2): tde
IC50 [2]: 7 µM
Activity (PC-3 [16]): Active
Activity (PC-3 [18]): 40%
Activity (PC-3 [19]): 1%
Activity (PC-3 [21]): 15%
Activity (HUVEC [22]): 20%
Activity (PC-3 [23]): 44%
Activity (PC-3 [24]): Dose-dependent effect
Activity (PC-3 [25]): Active
Activity (PC-3 [26]): Dose-dependent effect
Activity (PC-3 [27]): 51%
Activity (HUVEC [28]): Active
Activity (PC-3 [30]): 38%
Activity (PC-3 [31]): 12%
Activity (PC-3 [32]): 8%
Activity (PC-3 [33]): 37%
Activity (PC-3 [34]): Dose-dependent effect

IC50 (PC-3 [1]): > 20 µM
IC50 (HepG2): > 20 µM
Structure (SMILES): CC1(C)[C@@H](OCc2ccccc2[N+](=O)[O-])CC[C@]2(C)[C@H]3C(=O)C=C4[C@@H]5C[C@@](C)(C(=O)O)CC[C@]5(C)CC[C@@]4(C)[C@]3(C)CC[C@@H]12
IC50 [2]: > 20 µM

More lines, now with the values behind:

Structure (SMILES): CO[C@H]1CC[C@]2(C)[C@H]3C(=O)C=C4[C@@H]5C[C@@](C)(C(=O)O)CC[C@]5(C)CC[C@@]4(C)[C@]3(C)CC[C@H]2C1(C)C
IC50 (PC-3 [1]): > 20 µM
IC50 [2]: > 20 µM
IC50 (HepG2): > 20 µM

Structure (SMILES): CC1(C)[C@@H](OCc2ccc(Cl)cc2Cl)CC[C@]2(C)[C@H]3C(=O)C=C4[C@@H]5C[C@@](C)(C(=O)O)CC[C@]5(C)CC[C@@]4(C)[C@]3(C)CC[C@@H]12
IC50 (PC-3 [1]): 18 µM
IC50 [2]: > 100 µM
IC50 (HepG2): > 100 µM

Structure (SMILES): COc1ccc(CO[C@H]2CC[C@]3(C)[C@H]4C(=O)C=C5[C@@H]6C[C@@](C)(C(=O)O)CC[C@]6(C)CC[C@@]5(C)[C@]4(C)CC[C@H]3C2(C)C)cc1OC
IC50 (PC-3 [1]): > 20 µM
IC50 [2]: > 20 µM
IC50 (HepG2): > 20 µM

Structure (SMILES): CC1(C)[C@@H](OCc2ccc(C(F)(F)F)cc2C(F)(F)F)CC[C@]2(C)[C@H]3C(=O)C=C4[C@@H]5C[C@@](C)(C(=O)O)CC[C@]5(C)CC[C@@]4(C)[C@]3(C)CC[C@@H]12
IC50 (PC-3 [1]): > 20 µM
IC50 [2]: > 20 µM
IC50 (HepG2): > 20 µM

Structure (SMILES): CC1(C)[C@@H](OCc2ccc(Br)cc2)CC[C@]2(C)[C@H]3C(=O)C=C4[C@@H]5C[C@@](C)(C(=O)O)CC[C@]5(C)CC[C@@]4(C)[C@]3(C)CC[C@@H]12
IC50 (PC-3 [1]): > 20 µM
IC50 [2]: > 20 µM
IC50 (HepG2): > 20 µM
